From patent EP3747280A1, “ANTIMICROBIAL COMBINATION FOR USE IN ANIMAL FEEDS” (Lucta, S.A., priority 2019, dated 2020)

Assays:
[1] = tested on: Vibrio campbellii; test: MIC assay, positive control; format: cell-based; conditions: positive control of the MIC test
Protocol: It was tested whether the experimental products (i.e. comparative examples 1 and 2, and examples 1 to 3) could inactivate diverse shrimp or fish and shrimp bacterial pathogens when directly interacting under an in vitro setting.
Bacterial growth was evaluated by visual and optical density.

[2] = Stability test in an animal feed (GC/FID quantification of the active ingredient in fish feed over storage time); format: physicochemical
Source text: The animal feed used was a commercial fish feed having a 52 wt% of crude protein.
Two 200 g samples of the commercial feed were taken for the application of each of the mixtures A and B.
A sterile plastic bag was spread out on a laboratory tray, and 200 g of the commercial feed was deposited on it. With the help of a liquid diffuser bottle, by means of short pulsations, 3 g of the mixture A, previously diluted to 10 wt% in vegetable oil, was applied to the feed.
The bag was closed and shaken, and the feed additive mixture was spread by manual friction in order to distribute it homogeneously all over the feed. Then, the feed containing the mixture A was put in a plastic container. The same process was carried out with mixture B instead of mixture A.
Each of these feed samples (200 g) containing mixture A or mixture B were divided into two and put into sterile cans (100 g of feed in each) for the different thermal treatments at room temperature (RT) and freezer temperature (FT).
Thus, an analytical method by capillary gas chromatography (high separation efficiency) and flame ionization detection (high sensitivity) ([…]) was developed. An Accelerated Solvent Extractor (ASE) extraction was made on the experimental feed samples and residual fats were eliminated from the chromatographic column using backflush.
In a mortar, about 5 g of the experimental feed sample were exactly weighted. 3 g of Celite 545 were added and mixed. The mixture was put in an ASE extraction cell (22 ml) and the sample was extracted with an 80%/20% hexane/acetone mixture at 100 °C and 1500 psi with 5 successive cycles (heating time 5 min, flush 40%, purge 60s) using an ASE equipment.
After extraction, enough anhydrous sodium sulfate was added to the extracts to absorb remaining water and solid residues. All the liquid extract was collected in a 50 ml beaker. The sodium sulfate was cleaned from the extraction tubes with some ml of the 80% /20% hexane/acetone mixture and added to the beaker. It was made up with the 80% /20% hexane/acetone mixture and mixed thoroughly. In a 2 ml glass vial to the GC/FID about 1 ml of the extract was taken. When some precipitate appeared, it was centrifuged at 6000 rpm 5 min.
The same protocol shown above was performed with the experimental feed samples but adding previously 0.2 ml of the 10,000 mg/l standard to 5 g of feed in the ASE extraction cell.
The standards, the experimental feed sample extract and its corresponding spiked sample extract were injected in the GC/FID equipment, minimum by duplicate, using the chromatographic conditions given above. The quantity spiked to the feed sample was at least the same quantity expected in the feed sample. If the area of the spiked sample didn't double at least the area of the corresponding non spiked sample, a high concentration of standard was used to spike the sample.
Results were calculated by standard addition method, taking into account the weight of the feed samples extracted and the standard concentrations.

[3] = in animal feeds, in 20 to 40 days; higher depending on the thermal treatment of feed; cited from earlier work

Compound: gentamycin
- inhibition at the expected concentration [1]: 4 mg/L

Compound: C(=C\C1OCCO1)/c1ccccc1 [EAAC, cinnamaldehyde ethylene glycol acetal]
- Amount of active agent ([2]; feed containing AC and EAAC 50:50, FT, 7 days): 269 mg/kg
- Amount of active agent ([2]; feed containing AC and EAAC 50:50, FT, 14 days): 220 mg/kg
- Amount of active agent ([2]; feed containing AC and EAAC 50:50, FT, 21 days): 265 mg/kg
- Amount of active agent ([2]; feed containing AC and EAAC 50:50, FT, 28 days): 238 mg/kg
- Amount of active agent ([2]; feed containing AC and EAAC 50:50, FT, 35 days): 197 mg/kg
- Amount of active agent ([2]; feed containing AC and EAAC 50:50, FT, 42 days): 224 mg/kg
- Amount of active agent ([2]; feed containing AC and EAAC 50:50, RT, 7 days): 288 mg/kg
- Amount of active agent ([2]; feed containing AC and EAAC 50:50, RT, 14 days): 236 mg/kg
- Amount of active agent ([2]; feed containing AC and EAAC 50:50, RT, 21 days): 258 mg/kg
- Amount of active agent ([2]; feed containing AC and EAAC 50:50, RT, 28 days): 237 mg/kg
- Amount of active agent ([2]; feed containing AC and EAAC 50:50, RT, 35 days): 191 mg/kg
- Amount of active agent ([2]; feed containing AC and EAAC 50:50, RT, 42 days): 229 mg/kg
- Amount of active agent ([2]; feed containing a mixture of AC and EAAC, molar ratio 50:50, stored at freezer temperature (FT), 0 days): 264 mg/kg
- Amount of active agent ([2]; feed containing a mixture of AC and EAAC, molar ratio 50:50, stored at room temperature (RT), 0 days): 264 mg/kg

Compound: O=CC=Cc1ccccc1 [AC, cinnamaldehyde]
- losses [3]: 30-50%
